Results as given in patent US9993494B2, “Compositions and methods for treating fibrotic disease” (eFFECTOR Therapeutics, Inc., priority 2014, dated 2018).

Test system: normal human lung fibroblasts
Test: Ribosomal profiling: translational efficiency in TGFβ-treated fibroblasts
Type: cell-based
How it was run: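 Genome-wide RPF and total RNA libraries (ARTseq, RNA-Seq) were made from lysates of cycloheximide-treated, PBS-washed cells. After trimming and human-genome mapping, per-gene coding-region counts were compared between RPF and RNA for translational efficiency. Genes scoring low in either fraction were dropped.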

## TGFβ
ENSG00000171793, Control vs. TGFβ
  change in translational profile of CTPS caused by TGFβ: D (D = <1.0 to 1.5)
ENSG00000171858, 5 replicates
  Log2 TE RPS21: 1.846
ENSG00000171863, 5 replicates
  Log2 TE RPS7: 1.549
ENSG00000172053, 5 replicates
  Log2 TE QARS: 1.362
ENSG00000172053, Control vs. TGFβ
  change in translational profile of QARS caused by TGFβ: D (D = <1.0 to 1.5)
ENSG00000172809, 5 replicates
  Log2 TE RPL38: 1.353
ENSG00000172809, Control vs. TGFβ
  change in translational profile of RPL38 caused by TGFβ: E (E = <1.5 to 2.5)
ENSG00000173641, 5 replicates
  Log2 TE HSPB7: 1.292
ENSG00000174100, Control vs. TGFβ
  change in translational profile of MRPL45 caused by TGFβ: D (D = <1.0 to 1.5)
ENSG00000174279, 5 replicates
  Log2 TE EVX2: 2.887
ENSG00000174444, 5 replicates
  Log2 TE RPL4: 1.688
ENSG00000174444, Control vs. TGFβ
  change in translational profile of RPL4 caused by TGFβ: E (E = <1.5 to 2.5)
ENSG00000174748, 5 replicates
  Log2 TE RPL15: 1.254
ENSG00000174748, Control vs. TGFβ
  change in translational profile of RPL15 caused by TGFβ: D (D = <1.0 to 1.5)
ENSG00000175084, 5 replicates
  Log2 TE DES: 1.204
ENSG00000175084, Control vs. TGFβ
  change in translational profile of DES caused by TGFβ: E (E = <1.5 to 2.5)
ENSG00000175315, 5 replicates
  Log2 TE CST6: 1.241
ENSG00000175390, 5 replicates
  Log2 TE EIF3F: 1.29
ENSG00000175390, Control vs. TGFβ
  change in translational profile of EIF3F caused by TGFβ: D (D = <1.0 to 1.5)
ENSG00000175505, 5 replicates
  Log2 TE CLCF1: 1.594
ENSG00000175505, Control vs. TGFβ
  change in translational profile of CLCF1 caused by TGFβ: E (E = <1.5 to 2.5)
ENSG00000176020, 5 replicates
  Log2 TE AMIGO3: −1.314
ENSG00000176020, Control vs. TGFβ
  change in translational profile of AMIGO3 caused by TGFβ: C (C = <−1.0 to −1.5)
ENSG00000176438, 5 replicates
  Log2 TE C14orf49: −1.044
ENSG00000176438, Control vs. TGFβ
  change in translational profile of C14orf49 caused by TGFβ: C (C = <−1.0 to −1.5)
ENSG00000177600, 5 replicates
  Log2 TE RPLP2: 1.694
ENSG00000177600, Control vs. TGFβ
  change in translational profile of RPLP2 caused by TGFβ: E (E = <1.5 to 2.5)
ENSG00000177954, 5 replicates
  Log2 TE RPS27: 1.429
ENSG00000178035, Control vs. TGFβ
  change in translational profile of IMPDH2 caused by TGFβ: D (D = <1.0 to 1.5)
ENSG00000178401, 5 replicates
  Log2 TE DNAJC22: −1.189
ENSG00000178401, Control vs. TGFβ
  change in translational profile of DNAJC22 caused by TGFβ: B (B = <−1.5 to −2.5)
ENSG00000180667, 5 replicates
  Log2 TE YOD1: 1.146
ENSG00000182405, 5 replicates
  Log2 TE PGBD4: 1.055
ENSG00000182899, 5 replicates
  Log2 TE RPL35A: 1.627
ENSG00000182899, Control vs. TGFβ
  change in translational profile of RPL35A caused by TGFβ: E (E = <1.5 to 2.5)
ENSG00000182909, Control vs. TGFβ
  change in translational profile of LENG9 caused by TGFβ: D (D = <1.0 to 1.5)
ENSG00000183172, Control vs. TGFβ
  change in translational profile of C22orf32 caused by TGFβ: D (D = <1.0 to 1.5)
ENSG00000183765, 5 replicates
  Log2 TE CHEK2: −1.457
ENSG00000183971, Control vs. TGFβ
  change in translational profile of NPW caused by TGFβ: D (D = <1.0 to 1.5)
ENSG00000184254, 5 replicates
  Log2 TE ALDH1A3: −1.327
ENSG00000184588, 5 replicates
  Log2 TE PDE4B: −2.021
ENSG00000184588, Control vs. TGFβ
  change in translational profile of PDE4B caused by TGFβ: B (B = <−1.5 to −2.5)
ENSG00000184661, 5 replicates
  Log2 TE CDCA2: −1.573
ENSG00000184702, 5 replicates
  Log2 TE 5-Sep: 1.209
ENSG00000185008, Control vs. TGFβ
  change in translational profile of ROBO2 caused by TGFβ: C (C = <−1.0 to −1.5)
ENSG00000185033, 5 replicates
  Log2 TE SEMA4B: −1.413
ENSG00000185437, 5 replicates
  Log2 TE SH3BGR: 1.121
ENSG00000185920, Control vs. TGFβ
  change in translational profile of PTCH1 caused by TGFβ: D (D = <1.0 to 1.5)
ENSG00000186184, 5 replicates
  Log2 TE POLR1D: 1.23
ENSG00000186184, Control vs. TGFβ
  change in translational profile of POLR1D caused by TGFβ: E (E = <1.5 to 2.5)
ENSG00000186468, 5 replicates
  Log2 TE RPS23: 1.302
ENSG00000187240, 5 replicates
  Log2 TE DYNC2H1: −1.228
ENSG00000187240, Control vs. TGFβ
  change in translational profile of DYNC2H1 caused by TGFβ: B (B = <−1.5 to −2.5)
ENSG00000187605, 5 replicates
  Log2 TE TET3: 1.541
ENSG00000187987, 5 replicates
  Log2 TE ZSCAN23: −1.048
ENSG00000188846, 5 replicates
  Log2 TE RPL14: 1.745
ENSG00000188846, Control vs. TGFβ
  change in translational profile of RPL14 caused by TGFβ: E (E = <1.5 to 2.5)
ENSG00000188906, Control vs. TGFβ
  change in translational profile of LRRK2 caused by TGFβ: C (C = <−1.0 to −1.5)
ENSG00000189180, 5 replicates
  Log2 TE ZNF33A: −1.058
